Measurements published in ChEMBL document CHEMBL1139391, “Synthesis and structure-activity relationship of benzetimide derivatives as human CXCR3 antagonists” (Bioorg Med Chem Lett, 2008).
pIC50: −log10 of the molar value.

Assays:
[1] = target: T1, C-X-C chemokine receptor type 3 (Homo sapiens, UniProt P49682); test: Antagonist activity at human CXCR3 expressed in CHO cells assessed as inhibition of ITAC-stimulated [35S]GTPgammaS binding pretreated 30 mins before ITAC challenge; assay type: functional, cell-based
T1 sequence (P49682 whole entry): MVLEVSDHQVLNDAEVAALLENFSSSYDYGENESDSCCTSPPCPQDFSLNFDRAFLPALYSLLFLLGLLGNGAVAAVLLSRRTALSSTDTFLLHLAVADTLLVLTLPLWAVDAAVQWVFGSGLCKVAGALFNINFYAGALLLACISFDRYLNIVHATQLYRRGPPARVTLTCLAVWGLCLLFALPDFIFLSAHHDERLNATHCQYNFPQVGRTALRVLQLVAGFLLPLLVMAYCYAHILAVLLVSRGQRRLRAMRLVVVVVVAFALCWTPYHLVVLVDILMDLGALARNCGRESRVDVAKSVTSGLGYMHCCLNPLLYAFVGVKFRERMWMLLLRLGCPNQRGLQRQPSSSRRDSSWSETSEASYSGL

[2] = target: T2, Muscarinic acetylcholine receptor M1 (Homo sapiens, UniProt P11229); test: Binding affinity to human muscarinic M1 receptor
T2 sequence (P11229 whole entry): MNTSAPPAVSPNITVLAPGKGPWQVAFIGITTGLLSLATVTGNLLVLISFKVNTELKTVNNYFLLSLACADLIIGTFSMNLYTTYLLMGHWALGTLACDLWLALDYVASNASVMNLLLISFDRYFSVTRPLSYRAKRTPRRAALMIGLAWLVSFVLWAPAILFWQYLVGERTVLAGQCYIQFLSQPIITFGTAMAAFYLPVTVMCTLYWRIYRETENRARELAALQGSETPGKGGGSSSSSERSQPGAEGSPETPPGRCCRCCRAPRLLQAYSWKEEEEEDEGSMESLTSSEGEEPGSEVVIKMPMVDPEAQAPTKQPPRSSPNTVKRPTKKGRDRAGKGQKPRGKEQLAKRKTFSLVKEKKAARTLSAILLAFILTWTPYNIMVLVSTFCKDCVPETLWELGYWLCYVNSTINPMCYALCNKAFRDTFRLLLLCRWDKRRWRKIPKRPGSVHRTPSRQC

[3] = target: T3, Muscarinic acetylcholine receptor M2 (Homo sapiens, UniProt P08172); test: Binding affinity to human muscarinic M2 receptor
T3 sequence (P08172 whole entry): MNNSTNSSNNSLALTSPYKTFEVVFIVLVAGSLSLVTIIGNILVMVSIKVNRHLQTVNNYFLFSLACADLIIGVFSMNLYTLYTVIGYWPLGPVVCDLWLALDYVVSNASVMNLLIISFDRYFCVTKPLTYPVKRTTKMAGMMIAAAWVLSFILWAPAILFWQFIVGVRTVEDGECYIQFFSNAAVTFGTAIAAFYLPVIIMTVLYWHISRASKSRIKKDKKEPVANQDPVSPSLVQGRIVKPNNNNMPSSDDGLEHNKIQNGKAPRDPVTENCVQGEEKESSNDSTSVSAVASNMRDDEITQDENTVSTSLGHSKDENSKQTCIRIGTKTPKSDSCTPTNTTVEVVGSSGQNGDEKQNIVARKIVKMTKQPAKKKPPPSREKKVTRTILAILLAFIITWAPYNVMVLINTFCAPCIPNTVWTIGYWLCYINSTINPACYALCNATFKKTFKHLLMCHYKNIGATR

[4] = target: Muscarinic acetylcholine receptor M3 (Homo sapiens, UniProt P20309); test: Binding affinity to human muscarinic M3 receptor
Chain of Muscarinic acetylcholine receptor M3 (P20309 whole entry): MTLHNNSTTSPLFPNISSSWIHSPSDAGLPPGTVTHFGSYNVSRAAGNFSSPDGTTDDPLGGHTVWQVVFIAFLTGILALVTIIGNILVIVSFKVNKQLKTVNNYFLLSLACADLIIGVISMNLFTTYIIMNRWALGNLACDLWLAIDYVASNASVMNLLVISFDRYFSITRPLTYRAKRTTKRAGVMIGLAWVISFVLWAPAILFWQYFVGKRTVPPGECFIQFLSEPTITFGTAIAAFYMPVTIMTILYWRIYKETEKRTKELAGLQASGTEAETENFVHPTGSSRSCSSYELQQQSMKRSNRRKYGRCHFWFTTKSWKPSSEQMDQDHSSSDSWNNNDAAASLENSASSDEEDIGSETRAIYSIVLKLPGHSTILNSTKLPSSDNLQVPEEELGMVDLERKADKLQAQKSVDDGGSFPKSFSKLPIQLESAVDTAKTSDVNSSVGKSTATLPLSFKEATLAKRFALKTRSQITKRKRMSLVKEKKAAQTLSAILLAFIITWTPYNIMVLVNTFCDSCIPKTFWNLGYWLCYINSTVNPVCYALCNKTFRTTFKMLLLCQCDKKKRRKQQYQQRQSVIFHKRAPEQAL

| SMILES | pIC50 [1] | pIC50 [2] | pIC50 [3] | pIC50 [4] | pIC50 ([1]; cho) |
| --- | --- | --- | --- | --- | --- |
| O=C1CCC(c2ccccc2)(C2CCN(Cc3ccccc3)CC2)C(=O)N1 (racemic) [BENZETIMIDE] | < 5.00 | – | – | – | – |
| O=C1CCC(c2ccccc2)(C2CCN(Cc3ccc(Cl)cc3)CC2)C(=O)N1 (racemic) | 6.08 | – | – | – | – |
| O=C1CCC(c2ccc(F)cc2F)(C2CCN(Cc3ccc(Br)cc3)CC2)C(=O)N1 (single isomer, unassigned; (+)) | 6.48 | > 9.00 | > 9.00 | > 9.00 | – |
| O=C1CCC(c2ccccc2)(C2CCN(Cc3ccc(Cl)c(C(F)(F)F)c3)CC2)C(=O)N1 (racemic) | 5.60 | – | – | – | – |
| COc1ccc(C2(C3CCN(Cc4ccc(Br)cc4)CC3)CCC(=O)NC2=O)cc1 (racemic) | 5.44 | – | – | – | – |
| O=C1CCC(c2ccccc2)(C2CCN(Cc3ccc(Br)cc3)CC2)C(=O)N1 (racemic) | 6.11 | – | – | – | – |
| COc1cccc(C2(C3CCN(Cc4ccc(Br)cc4)CC3)CCC(=O)NC2=O)c1 (racemic) | 5.81 | – | – | – | – |
| O=C(C1CC1)N1CCCC(c2ccccc2)(C2CCN(Cc3ccc(Br)cc3)CC2)C1 (racemic) | 6.74 | – | – | – | – |
| CCOC(=O)N1CCCC(c2ccccc2)(C2CCN(Cc3ccc(Br)cc3)CC2)C1 (racemic) | 6.49 | – | – | – | – |
| O=C1CCC(c2ccc(F)cc2)(C2CCN(Cc3ccc(Br)cc3)CC2)C(=O)N1 (racemic) | 5.90 | – | – | – | – |
| O=C1CCC(c2ccccc2)(C2CCN(Cc3ccc(Cl)c(F)c3)CC2)C(=O)N1 (single isomer, unassigned; (-)) | 6.47 | – | – | – | – |
| O=C(N1CCCC(c2ccccc2)(C2CCN(Cc3ccc(Br)cc3)CC2)C1)C(F)(F)F (racemic) | 6.16 | – | – | – | – |
| NC(=O)CN1CCCC(c2ccccc2)(C2CCN(Cc3ccc(Br)cc3)CC2)C1 (racemic) | 7.10 | – | – | – | – |
| O=C1CCC(c2ccccc2)(C2CCN(Cc3ccccc3)CC2)C(=O)N1 (stereo in doubt; (-)-3a) [BENZETIMIDE] | – | < 5.00 | < 5.00 | < 5.00 | < 5.00 |
| O=C1CCC(c2cccc(Cl)c2)(C2CCN(Cc3ccc(Br)cc3)CC2)C(=O)N1 (racemic) | 5.84 | – | – | – | – |
| CCCN1C(=O)CCC(c2ccccc2)(C2CCN(Cc3ccc(Br)cc3)CC2)C1=O (racemic) | 5.30 | – | – | – | – |
| Brc1ccc(CN2CCC(C3(c4ccccc4)CCCNC3)CC2)cc1 (racemic) | < 5.00 | – | – | – | – |
| CC(=O)N1CCCC(c2ccccc2)(C2CCN(Cc3ccc(Br)cc3)CC2)C1 (single isomer, unassigned; (+)) | 5.64 | < 5.00 | < 5.00 | < 5.00 | – |
| O=C1CCC(c2ccccc2)(C2CCN(Cc3ccccc3)CC2)C(=O)N1 (single isomer, unassigned; (+)) [BENZETIMIDE] | – | > 9.00 | > 9.00 | > 9.00 | < 5.00 |
| NS(=O)(=O)N1CCCC(c2ccccc2)(C2CCN(Cc3ccc(Br)cc3)CC2)C1 (racemic) | 6.68 | – | – | – | – |

The next lines start with results.

| pIC50 [1] | pIC50 [2] | pIC50 [3] | pIC50 [4] | SMILES | pIC50 ([1]; cho) |
| --- | --- | --- | --- | --- | --- |
| 7.22 | < 5.00 | < 5.00 | < 5.00 | O=C1CCC(c2ccc(F)cc2F)(C2CCN(Cc3ccc(Br)cc3)CC2)C(=O)N1 (single isomer, unassigned; (-)) | – |
| 5.88 | > 9.00 | > 9.00 | > 9.00 | O=C1CCC(c2ccccc2)(C2CCN(Cc3ccc(Br)cc3)CC2)C(=O)N1 (single isomer, unassigned; (+)) | – |
| 5.20 | 5.05 | < 5.00 | < 5.00 | O=C(Nc1ccccc1)N1CCCC(c2ccccc2)(C2CCN(Cc3ccc(Br)cc3)CC2)C1 (single isomer, unassigned; (+)) | – |
| 5.37 | – | – | – | COc1ccc(CN2CCC(C3(c4ccccc4)CCC(=O)NC3=O)CC2)cc1 (racemic) | – |
| 5.90 | – | – | – | CN1CCN(C(=O)c2cccc(C3(C4CCN(Cc5ccc(Br)cc5)CC4)CCC(=O)NC3=O)c2)CC1 (racemic) | – |
| 7.22 | < 5.00 | < 5.00 | < 5.00 | NC(=O)CN1CCCC(c2ccccc2)(C2CCN(Cc3ccc(Br)cc3)CC2)C1 (stereo in doubt; (+)-47b) | – |
| 6.60 | – | – | – | NC(=O)N1CCCC(c2ccccc2)(C2CCN(Cc3ccc(Br)cc3)CC2)C1 (racemic) | – |
| 6.92 | – | – | – | O=C1CCC(c2ccc(F)cc2F)(C2CCN(Cc3ccc(Br)cc3)CC2)C(=O)N1 (racemic) | – |
| 5.50 | – | – | – | O=C1CCC(c2ccccc2)(C2CCN(Cc3ccc(Cl)cc3Cl)CC2)C(=O)N1 (racemic) | – |
| 7.52 | < 5.00 | < 5.00 | < 5.00 | O=C(Nc1ccccc1)N1CCCC(c2ccccc2)(C2CCN(Cc3ccc(Br)cc3)CC2)C1 (single isomer, unassigned; (-)) | – |
| 6.96 | 5.00 | 5.00 | 5.52 | CC(=O)N1CCCC(c2ccccc2)(C2CCN(Cc3ccc(Br)cc3)CC2)C1 (single isomer, unassigned; (-)) | – |
| 5.34 | – | – | – | O=C1CCC(c2ccccc2)(C2CCN(Cc3ccc(F)cc3)CC2)C(=O)N1 (racemic) | – |
| 6.85 | – | – | – | CC(=O)N1CCCC(c2ccccc2)(C2CCN(Cc3ccc(Br)cc3)CC2)C1 (racemic) | – |
| 6.77 | – | – | – | COc1ccc(S(=O)(=O)O)cc1C1(C2CCN(Cc3ccc(Br)cc3)CC2)CCC(=O)NC1=O (racemic) | – |
| 6.09 | 5.30 | 5.70 | 5.96 | NC(=O)CN1CCCC(c2ccccc2)(C2CCN(Cc3ccc(Br)cc3)CC2)C1 (single isomer, unassigned; (-)) | – |
| 7.22 | – | – | – | O=C(Nc1ccccc1)N1CCCC(c2ccccc2)(C2CCN(Cc3ccc(Br)cc3)CC2)C1 (racemic) | – |
| 6.82 | – | – | – | O=CN1CCCC(c2ccccc2)(C2CCN(Cc3ccc(Br)cc3)CC2)C1 (racemic) | – |
| 5.62 | – | – | – | Cc1ccc(CN2CCC(C3(c4ccccc4)CCC(=O)NC3=O)CC2)cc1 (racemic) [MELETIMIDE] | – |
| 6.54 | – | – | – | CCC(=O)N1CCCC(c2ccccc2)(C2CCN(Cc3ccc(Br)cc3)CC2)C1 (racemic) | – |
| 6.49 | – | – | – | Nc1cccc(C2(C3CCN(Cc4ccc(Br)cc4)CC3)CCC(=O)NC2=O)c1 (racemic) | – |
